Experimental data: patent US20240360177A1, “PEPTIDES WITH ANTIMICROBIAL ACTIVITIES” (priority 2021, published 2024)
Values after ≈ are worked out from the molar mass of the structure shown. Non-standard residues stand in square brackets, D forms with d. Residues, ends and D or L forms follow the SMILES beside them. Aoc = NCCCCCCCC(=O)O; Ava = NCCCCC(=O)O

Legend:
C. krusei = settings: 24 h
C. albicans = settings: 24 h
Scedosporium spp. = settings: 72 h
C. auris = settings: 24 h
C. gattii = settings: 72 h
C. dubliniensis = settings: 24 h
C. glabrata = settings: 24 h
C. parapsilosis = settings: 24 h
C. tropicalis = settings: 24 h
Fusarium spp. = settings: 48 h
C. neoformans = settings: 72 h

Row | Structure (SMILES) | MIC C. krusei (C. krusei) [µg/mL] | MIC Range Lomentospora prolificans (Lomentospora prolificans) [µg/mL] | MIC C. albicans (C. albicans) [µg/mL] | MIC Range Scedosporium spp. (Scedosporium spp.) [µg/mL] | MIC C. auris (C. auris) [µg/mL] | MIC C. gattii (C. gattii) [µg/mL] | MIC C. dubliniensis (C. dubliniensis) [µg/mL] | MIC C. glabrata (C. glabrata) [µg/mL] | MIC C. parapsilosis (C. parapsilosis) [µg/mL] | MIC C. tropicalis (C. tropicalis) [µg/mL] | MIC Range Fusarium spp. (Fusarium spp.) [µg/mL] | MIC C. neoformans (C. neoformans) [µg/mL]
1 | CC(=O)N[C@H](CCCNC(=N)N)C(=O)N[C@@H](CCCNC(=N)N)C(=O)N[C@H](CCCNC(=N)N)C(=O)NCCCCCCCC(=O)N[C@H](CCCNC(=N)N)C(=O)N[C@@H](CCCNC(=N)N)C(=O)N[C@H](CCCNC(=N)N)C(=O)NCCCCCCCC(=O)N[C@H](CCCNC(=N)N)C(=O)N[C@@H](CCCNC(=N)N)C(=O)N[C@H](CCCNC(=N)N)C(=O)N[C@@H](CCCNC(=N)N)C(=O)NCCCCCCCC(=O)N[C@H](CCCNC(=N)N)C(=O)N[C@@H](CCCNC(=N)N)C(=O)N[C@H](CCCNC(=N)N)C(=O)N[C@@H](CCCNC(=N)N)C(N)=O [SEQ ID NO: 31, CH3CONH-rRr-(Aoa)-rRr-(Aoa)-rRrR-(Aoa)-rRrR-NH2] (Ac-[dR]R[dR][Aoc][dR]R[dR][Aoc][dR]R[dR]R[Aoc][dR]R[dR]R-NH2) | 0.5 (≈ 0.187 µM) | 2 (≈ 0.749 µM) | 1 (≈ 0.375 µM) | 0.5 to 2 | 0.5 (≈ 0.187 µM) | 0.5 (≈ 0.187 µM) | 1 (≈ 0.375 µM) | 1 (≈ 0.375 µM) | 0.25 (≈ 0.0937 µM) | 0.5 (≈ 0.187 µM) | 0.25 to 4 | 0.5 (≈ 0.187 µM)
2 | N=C(N)NCCC[C@@H](N)C(=O)N[C@@H](CCCNC(=N)N)C(=O)NCCCCC(=O)N[C@H](CCCNC(=N)N)C(=O)N[C@@H](CCCNC(=N)N)C(=O)NCCCCC(=O)N[C@H](CCCNC(=N)N)C(=O)N[C@@H](CCCNC(=N)N)C(=O)N[C@H](CCCNC(=N)N)C(=O)NCCCCC(=O)N[C@H](CCCNC(=N)N)C(=O)N[C@@H](CCCNC(=N)N)C(=O)N[C@H](CCCNC(=N)N)C(N)=O [SEQ ID NO: 26, rR-(Ava)-rR-(Ava)-rRr-(Ava)-rRr-NH2] (H-[dR]R[Ava][dR]R[Ava][dR]R[dR][Ava][dR]R[dR]-NH2) | 8 (≈ 4.26 µM) | 32 (≈ 17.1 µM) | 8 (≈ 4.26 µM) | 16 to 32 | >32 | 4 (≈ 2.13 µM) | 4 (≈ 2.13 µM) | 8 (≈ 4.26 µM) | 0.5 (≈ 0.266 µM) | 2 (≈ 1.07 µM) |  | 16 (≈ 8.53 µM)
3 | N=C(N)NCCC[C@@H](N)C(=O)N[C@@H](CCCNC(=N)N)C(=O)NCCCCC(=O)N[C@H](CCCNC(=N)N)C(=O)N[C@@H](CCCNC(=N)N)C(=O)N[C@H](CCCNC(=N)N)C(=O)NCCCCC(=O)N[C@H](CCCNC(=N)N)C(=O)N[C@@H](CCCNC(=N)N)C(=O)N[C@H](CCCNC(=N)N)C(=O)NCCCCC(=O)N[C@H](CCCNC(=N)N)C(=O)N[C@@H](CCCNC(=N)N)C(N)=O [SEQ ID NO: 23, rR-(Ava)-rRr-(Ava)-rRr-(Ava)-rR-NH2] (H-[dR]R[Ava][dR]R[dR][Ava][dR]R[dR][Ava][dR]R-NH2) | 4 (≈ 2.13 µM) | >32 | 2 (≈ 1.07 µM) | 16 to 32 | >32 | 2 (≈ 1.07 µM) | 1 (≈ 0.533 µM) | 4 (≈ 2.13 µM) | 0.25 (≈ 0.133 µM) | 1 (≈ 0.533 µM) |  | 8 (≈ 4.26 µM)
4 | N=C(N)NCCC[C@@H](N)C(=O)N[C@@H](CCCNC(=N)N)C(=O)NCCCCC(=O)N[C@H](CCCNC(=N)N)C(=O)N[C@@H](CCCNC(=N)N)C(=O)N[C@H](CCCNC(=N)N)C(=O)NCCCCC(=O)N[C@H](CCCNC(=N)N)C(=O)N[C@@H](CCCNC(=N)N)C(=O)NCCCCC(=O)N[C@H](CCCNC(=N)N)C(=O)N[C@@H](CCCNC(=N)N)C(=O)N[C@H](CCCNC(=N)N)C(N)=O [SEQ ID NO: 25, rR-(Ava)-rRr-(Ava)-rR-(Ava)-rRr-NH2] (H-[dR]R[Ava][dR]R[dR][Ava][dR]R[Ava][dR]R[dR]-NH2) | 16 (≈ 8.53 µM) | >32 | 4 (≈ 2.13 µM) | 16 to 32 | >32 | 4 (≈ 2.13 µM) | 2 (≈ 1.07 µM) | 8 (≈ 4.26 µM) | 0.5 (≈ 0.266 µM) | 2 (≈ 1.07 µM) |  | 32 (≈ 17.1 µM)
5 | N=C(N)NCCC[C@@H](N)C(=O)N[C@@H](CCCNC(=N)N)C(=O)N1CCC[C@H]1C(=O)N[C@H](CCCNC(=N)N)C(=O)N[C@@H](CCCNC(=N)N)C(=O)N[C@H](CCCNC(=N)N)C(=O)N1CCC[C@H]1C(=O)N[C@H](CCCNC(=N)N)C(=O)N[C@@H](CCCNC(=N)N)C(=O)N[C@H](CCCNC(=N)N)C(=O)N1CCC[C@H]1C(=O)N[C@H](CCCNC(=N)N)C(=O)N[C@@H](CCCNC(=N)N)C(N)=O [SEQ ID NO: 71, rR-P-rRr-P-rRr-P-rR-NH2] (H-[dR]RP[dR]R[dR]P[dR]R[dR]P[dR]R-NH2) | 2 (≈ 1.07 µM) | 8 (≈ 4.28 µM) | 0.5 (≈ 0.267 µM) | 4 to 8 | >32 | 4 (≈ 2.14 µM) | 1 (≈ 0.535 µM) | 1 (≈ 0.535 µM) | 0.25 (≈ 0.134 µM) | 0.5 (≈ 0.267 µM) |  | 8 (≈ 4.28 µM)
6 | N=C(N)NCCC[C@@H](N)C(=O)N[C@@H](CCCNC(=N)N)C(=O)N[C@H](CCCNC(=N)N)C(=O)NCCCCC(=O)N[C@H](CCCNC(=N)N)C(=O)N[C@@H](CCCNC(=N)N)C(=O)NCCCCC(=O)N[C@H](CCCNC(=N)N)C(=O)N[C@@H](CCCNC(=N)N)C(=O)N[C@H](CCCNC(=N)N)C(=O)NCCCCC(=O)N[C@H](CCCNC(=N)N)C(=O)N[C@@H](CCCNC(=N)N)C(N)=O [SEQ ID NO: 24, rRr-(Ava)-rR-(Ava)-rRr-(Ava)-rR-NH2] (H-[dR]R[dR][Ava][dR]R[Ava][dR]R[dR][Ava][dR]R-NH2) | 8 (≈ 4.26 µM) | >32 | 2 (≈ 1.07 µM) | 8 to 32 | >32 | 4 (≈ 2.13 µM) | 1 (≈ 0.533 µM) | 8 (≈ 4.26 µM) | 0.25 (≈ 0.133 µM) | 1 (≈ 0.533 µM) |  | 16 (≈ 8.53 µM)
7 | CC(=O)N[C@H](CCCNC(=N)N)C(=O)N[C@@H](CCCNC(=N)N)C(=O)N[C@H](CCCNC(=N)N)C(=O)N1CCC[C@H]1C(=O)N[C@H](CCCNC(=N)N)C(=O)N[C@@H](CCCNC(=N)N)C(=O)N[C@H](CCCNC(=N)N)C(=O)N1CCC[C@H]1C(=O)N[C@H](CCCNC(=N)N)C(=O)N[C@@H](CCCNC(=N)N)C(=O)N[C@H](CCCNC(=N)N)C(=O)N[C@@H](CCCNC(=N)N)C(=O)N1CCC[C@H]1C(=O)N[C@H](CCCNC(=N)N)C(=O)N[C@@H](CCCNC(=N)N)C(=O)N[C@H](CCCNC(=N)N)C(=O)N[C@@H](CCCNC(=N)N)C(N)=O [SEQ ID NO: 55, CH3CONH-rRr-P-rRr-P-rRrR-P-rRrR-NH2] (Ac-[dR]R[dR]P[dR]R[dR]P[dR]R[dR]RP[dR]R[dR]R-NH2) | 2 (≈ 0.788 µM) | 1 (≈ 0.394 µM) | 1 (≈ 0.394 µM) | 0.5 to 1 | 1 (≈ 0.394 µM) | 1 (≈ 0.394 µM) | 0.5 (≈ 0.197 µM) | 0.5 (≈ 0.197 µM) | 0.25 (≈ 0.0985 µM) | 0.5 (≈ 0.197 µM) | 0.25 to 1 | 0.5 (≈ 0.197 µM)
8 | N=C(N)NCCC[C@@H](N)C(=O)N[C@@H](CCCNC(=N)N)C(=O)N[C@H](CCCNC(=N)N)C(=O)NCCCCC(=O)N[C@H](CCCNC(=N)N)C(=O)N[C@@H](CCCNC(=N)N)C(=O)N[C@H](CCCNC(=N)N)C(=O)NCCCCC(=O)N[C@H](CCCNC(=N)N)C(=O)N[C@@H](CCCNC(=N)N)C(=O)NCCCCC(=O)N[C@H](CCCNC(=N)N)C(=O)N[C@@H](CCCNC(=N)N)C(N)=O [SEQ ID NO: 27, rRr-(Ava)-rRr-(Ava)-rR-(Ava)-rR-NH2] (H-[dR]R[dR][Ava][dR]R[dR][Ava][dR]R[Ava][dR]R-NH2) | 8 (≈ 4.26 µM) | 32 (≈ 17.1 µM) | 2 (≈ 1.07 µM) | 8 to 16 | >32 | 2 (≈ 1.07 µM) | 1 (≈ 0.533 µM) | 8 (≈ 4.26 µM) | 0.25 (≈ 0.133 µM) | 1 (≈ 0.533 µM) |  | 8 (≈ 4.26 µM)
9 | N=C(N)NCCC[C@@H](N)C(=O)N[C@@H](CCCNC(=N)N)C(=O)N1CCC[C@H]1C(=O)N[C@H](CCCNC(=N)N)C(=O)N[C@@H](CCCNC(=N)N)C(=O)N1CCC[C@H]1C(=O)N[C@H](CCCNC(=N)N)C(=O)N[C@@H](CCCNC(=N)N)C(=O)N[C@H](CCCNC(=N)N)C(=O)N1CCC[C@H]1C(=O)N[C@H](CCCNC(=N)N)C(=O)N[C@@H](CCCNC(=N)N)C(=O)N[C@H](CCCNC(=N)N)C(N)=O [SEQ ID NO: 73, rR-P-rR-P-rRr-P-rRr-NH2] (H-[dR]RP[dR]RP[dR]R[dR]P[dR]R[dR]-NH2) | 2 (≈ 1.07 µM) | 32 (≈ 17.1 µM) | 1 (≈ 0.535 µM) | 8 to 16 | >32 | 2 (≈ 1.07 µM) | 2 (≈ 1.07 µM) | 1 (≈ 0.535 µM) | 0.5 (≈ 0.267 µM) | 1 (≈ 0.535 µM) |  | 8 (≈ 4.28 µM)
